Experiment [1] has as its target muscarinic acetylcholine receptors. The experiment is described as follows: ^3 H-QNB (quinuclidinyl benzilate) binding/displacement, rat cerebral membranes. Conditions: ^3 H-QNB 60 pM, rat cerebral membranes.
For experiment [2], the system named is ^3 H-Dopamine release, rat striatal slices. The experiment is described as follows: Ligand-stimulated ^3 H-dopamine release from rat striatal slices. The class given is cell-based. Conditions: in vitro slices, 300 μM.
For experiment [3], the system named is ^3 H-Norepinephrine release, rat hippocampus slices. The experiment is described as follows: Ligand-stimulated ^3 H-norepinephrine release from rat hippocampus slices. Conditions: in vitro slices, 300 μM. The class given is cell-based.
The test system of experiment [4] is ^3 H-Norepinephrine release, rat thalamus slices. The experiment is described as follows: Ligand-stimulated ^3 H-norepinephrine release from rat thalamus slices. The class given is cell-based. Conditions: in vitro slices, 300 μM. As for the experimental part: Measurement of ^3 H-dopamine release from rat striatal slices was performed according to the method of Sacaan et al. (J. Neurochem. 59:245 (1992)). Male Sprague-Dawley rats (250-300 g) were decapitated and the striata or olfactory tubercles dissected quickly on a cold glass surface. The tissue was chopped to a thickness of 300 μm with a McIlwain tissue chopper. After chopping again at right angles the tissue was dispersed and incubated for 10 min. at 37° C. in oxygenated Kreb's buffer. ^3 H-Dopamine (40 Ci/mmol, NEN- Dupont, Boston, Mass.) was added (50 nM) and the tissue was incubated for 30 min. in Kreb's buffer containing 10 μM pargyline and 0.5 mM ascorbic acid. Aliquots of the minced tissue were then transferred to chambers of a Brandel Superfusion system in which the tissue was supported on Whatman GF/B filter discs. The tissue was then superfused with buffer at a constant flow rate of 0.3 ml/min by means of a Brandel peristaltic pump. The perfusate was collected in plastic scintillation vials in 3-min fractions, and the radioactivity was estimated by scintillation spectrophotometry. The superfusate for the first 120 min was discarded. After two baseline fractions had been collected, the superfusion buffer was switched to fresh buffer with or without compound of interest. At the end of the experiment the filter and the tissue were removed, and the radiolabeled neurotransmitter content was estimated after extraction into scintillation fluid. The fractional efflux of radiolabeled neurotransmitter was estimated as the amount of radioactivity in the perfusate fraction relative to the total amount in the tissue.
Following essentially the same procedure as set forth above, the amount of ^3 H-norepinephrine released from rat hippocampus, thalamus and prefrontal cortex slices superfused with buffer containing (or lacking) compounds of interest was also measured.
Results of studies of the effects of an invention compound (as compared to the effect of nicotine) on the release of neurotransmitters from rat brain slices are presented in Table II. Results presented in Part A of the Table are expressed as the percent fractional release and results presented in Part B of the Table are expressed as a percentage, relative to nicotine response.

Experiment [5] deals with rats with unilateral 6-hydroxydopamine lesions of the nigrostriatal dopamine pathway. The class given is in vivo, rat (male Sprague-Dawley). Conditions: 20 mg/kg, s.c., per one hour interval. The method, then:
Selective lesions of the brain dopamine pathway using the neurotoxin 6-hydroxydopamine (6-OHDA) in rats can be used as an experimental approach to Parkinson's disease. Unilateral lesions of the nigrostriatal dopamine pathway induce a postural asymmetry which becomes manifested as rotation when the animals are activated by dopamine releasers or dopamine agonists. When amphetamine and other stimulant drugs that induce pre-synaptic release of dopamine from intact nerve terminals are administered, the rats rotate in a direction ipsilateral to the lesion. In contrast, when the rats are injected with post-synaptic dopamine receptor agonists, such as apomorphine, they turn in a contralateral direction, due to the development of supersensitive dopamine receptors in the lesioned side. Thus, the 6-OHDA model can be used to determine if a suspected dopaminergic agent is active, and to differentiate whether such action is pre- or post-synaptic.
The effects of invention compounds on rotational behavior in 6-hydroxydopamine denervated rats were evaluated using the procedure of Ungerstedt and Arbutknott, Brain Res. 24:485-493 (1970). Male Sprague-Dawley rats (Zivic Miller) weighing 170-200 gm were used in the 6-OHDA procedure. The ascending nigrostriatal dopamine pathway was lesioned by unilateral stereotaxic injection of 6-OHDA (8.0 μg) into one substantia nigra. All injections of 6-OHDA were preceded by desmethylimipramine (25 mg/kg i.p.) and pargyline (75 mg/kg i.p.) approximately 30 minutes prior to undergoing stereotaxic surgery for 6-OHDA infusion into the substantia nigra. After one week of recovery from surgery, the effectiveness of the lesions was verified by noting the response of the animals to apomorphine (0.2 mg/kg, s.c.). Only rats with a minimum rate of 80 contralateral turns per 30 minutes (a sign of more than 80-90% dopamine depletion after a 6-OHDA lesion) were used. Two weeks later, the selected rats were tested with invention and reference compounds using an automated rotometer system to record the number and direction of rotations. In order to distinguish spontaneous (non-specific)rotations from induced rotations (specific to the effect of the drug), each rat was used as its own control, employing the following procedure:
The rat was placed in the rotometer system for acclimatation for 15 minutes, the vehicle administered subcutaneously, the rat's rotations recorded for one hour, then test compound was administered s.c. and rotations again recorded for one hour. The number of ipsilateral rotations induced by vehicle was then compared to the number of ipsilateral rotations induced by test compound. Statistical analysis of the data was carried out using Student's t-test (paired).

The next experiment deals with rats. The experiment is described as follows: Locomotor activity assay. The class given is in vivo, rat (male Sprague-Dawley). Conditions: Rattus norvegicus, sc, 20 mg/kg, s.c.
The mark [6] stands for this setting: 1 h, 0-60 min, read-out: Ambulation (cross overs), percent of change from control.
[7] abbreviates: 1 h, 0-60 min, read-out: General Activity (beam breaks), percent of change from control.
[8] abbreviates: 2 h, 60-120 min, read-out: General Activity (beam breaks), percent of change from control.
[9] abbreviates: 2 h, 60-120 min, read-out: Ambulation (cross overs), percent of change from control.

Structures are written as SMILES. Like-named read-outs stand apart in the source and are kept apart here.

As usually defined, the IC50 is the concentration needed to halve the response being measured.

`C#Cc1cncc(C2CCCN2C)c1.O=C(O)/C=C/C(=O)O` (racemic) [R^5 = ethynyl (racemic), 5-Ethynyl-3-(1-methyl-2-pyrrolidinyl)pyridine fumarate] showed an IC50 in experiment [1] of 10.1 µM. Moreover, the “percent fractional release, ^3 H-Dopamine, Striatum” value in experiment [2] came to 2.56%. The “percent fractional release, ^3 H-Norepinephrine, Hippocampus” value (“percent fractional release … Hippocampus” for short) in experiment [3] is on record as 0.69%. For the same compound, the “percent fractional release, ^3 H-Norepinephrine, Thalamus” value (“percent fractional release … Thalamus” below) in experiment [4] worked out at 0.31%. In addition, the “Percent change from control (ipsilateral rotations)” value (“Percent change from control” below) in experiment [5] is recorded as “+406%”. For the same compound, the change in vivo at 20 mg/kg with rats (setting [6]) is 631%; in the experiment with rats (setting [7]) it was 509%; in the experiment on rats (setting [8]), 628%.
In experiment [1], `CN1CCCC1c1cncc(-c2ccc(O)c(Cl)c2)c1.O=C(O)/C=C/C(=O)O` (centres unmarked) [R^5 = 3-chloro-4-hydroxyphenyl, 5-(4-hydroxy-3-chlorophenyl)-3-(1-methyl-2-pyrrolidinyl)pyridine fumarate] gave an IC50 above 10 µM. In experiment [2], the “percent fractional release, ^3 H-Dopamine, Striatum” value was found to be 8.34%. Also, the “percent fractional release … Hippocampus” value in experiment [3] came to 2.5%. Also, in experiment [4], the “percent fractional release … Thalamus” value is on record as 3.23%. Further, the “Percent change from control” value in experiment [5] is recorded as -40%. Moreover, the change in vivo at 20 mg/kg was 63% in the experiment on rats (setting [6]), 68% with rats (setting [7]), -36% in the experiment with rats (setting [9]) and -17% in the experiment with rats (setting [8]).
`CN1CCCC1c1cncc(-c2cccc(Cl)c2)c1.O=C(O)/C=C/C(=O)O` (centres unmarked) [R^5 = 3-chlorophenyl, 5-(3-Chlorophenyl)-3-(1-methyl-2-pyrrolidinyl) pyridine fumarate] yielded an IC50 in experiment [1] of 3.7 µM. Also, the “percent fractional release, ^3 H-Dopamine, Striatum” value in experiment [2] is 2.0%. Also, the “percent fractional release … Hippocampus” value in experiment [3] came to 1.45%. In experiment [4], the “percent fractional release … Thalamus” value worked out at 1.48%. Moreover, the “Percent change from control” value in experiment [5] is reported as “+62%”. The change in vivo at 20 mg/kg was 48% in the experiment with rats (setting [6]), 70% with rats (setting [7]), 268% in the experiment on rats (setting [9]) and 220% with rats (setting [8]).
In the case of `COc1ccc(-c2cncc(C3CCCN3C)c2)cc1F.O=C(O)/C=C/C(=O)O` (centres unmarked) [R^5 = 3-fluoro-4-methoxyphenyl, 5-(3-Fluoro-4-methoxyphenyl)-3-(1-methyl-2-pyrrolidinyl)pyridine fumarate], the IC50 in experiment [1] was 30.5 µM. In addition, in experiment [2], the “percent fractional release, ^3 H-Dopamine, Striatum” value worked out at 3.1%. In experiment [3], the “percent fractional release … Hippocampus” value is listed as 0.73%. Further, in experiment [4], the “percent fractional release … Thalamus” value came out at 1.75%. For the same compound, the “Percent change from control” value in experiment [5] is on record as -3%. The change in vivo at 20 mg/kg in the experiment with rats (setting [6]) turned out to be 58%; in the experiment with rats (setting [7]) it was 78%; in the experiment with rats (setting [9]), 268%; in the experiment with rats (setting [8]) it was 202%.

The record behind these values is US5677459A, “Methods for the preparation of modulators of acetylcholine receptors” (Sibia Neurosciences, Inc., priority 1995, dated 1997).
